Among the test systems are SF-268; SK-MEL-5; NCI-H522; BT-549; KM12; MDA-MB-231; OVCAR-3; SW-620; UACC-62; MDA-MB-435; EKVX; UO-31; Hs-578T; MDA-N; A498; RPMI-8226; CAKI-1; IGROV-1; K562.
Holding throughout (assay): growth of human tumour cells (NCI), 48 h

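Test compounds were applied to cells in 96-well plates for 48 hours at 5 doses. GI50: concentration for 50% inhibition of growth.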 Calls of active or inactive are those of the source. Cut-off read from the data, not from the text of the source: active = GI50 up to about 1.1 µM and inactive = higher.

With `CCC(C(=O)c1cccs1)C(O)(C(F)(F)F)C(F)(F)F` (stereo not given), the GI50 in the experiment on SF-268, in the experiment with SK-MEL-5, in the experiment with NCI-H522, with BT-549, in the experiment with KM12 and in the experiment on MDA-MB-231 was > 100 µM (inactive) each time. The GI50 in the experiment with OVCAR-3, in the experiment on SW-620, in the experiment with UACC-62, with MDA-MB-435, with EKVX and in the experiment on UO-31 was > 100 µM (inactive) each time. Besides, the GI50 in the experiment on Hs-578T, with MDA-N, in the experiment on A498, in the experiment on RPMI-8226, in the experiment on CAKI-1 and with IGROV-1 was > 100 µM (inactive) throughout. The GI50 in the experiment on K562 is > 100 µM (inactive).
Turning to `CC(=O)OCC(=O)[C@@]12OC(C)(C)O[C@@H]1C[C@H]1[C@@H]3CC=C4C[C@@H](O)CC[C@]4(C)[C@H]3CC[C@@]12C`, the GI50 with SF-268 is 31.6 µM (inactive); in the experiment with SK-MEL-5, > 100 µM (inactive); in the experiment with NCI-H522, 57.9 µM (inactive); in the experiment on BT-549 it was 31.6 µM (inactive); in the experiment on KM12 it was > 100 µM (inactive); with MDA-MB-231, 61.5 µM (inactive). Also, the GI50 in the experiment with OVCAR-3 is > 100 µM (inactive); in the experiment on SW-620, > 100 µM (inactive); in the experiment on UACC-62, > 100 µM (inactive); in the experiment with MDA-MB-435 it was > 100 µM (inactive); in the experiment on EKVX, 29.6 µM (inactive); in the experiment with UO-31, > 100 µM (inactive). The GI50 in the experiment with Hs-578T is 22.4 µM (inactive); in the experiment on MDA-N it was > 100 µM (inactive); with A498 it was 32.1 µM (inactive); in the experiment with RPMI-8226, 59.8 µM (inactive); in the experiment with CAKI-1, > 100 µM (inactive); in the experiment on IGROV-1 it was 50.5 µM (inactive). For the same molecule, the GI50 in the experiment on K562 is > 100 µM (inactive).
Consider `c1ccc(COc2nc3cc(C45CC6CC(CC(C6)C4)C5)ccc3[nH]2)cc1`, for which the GI50 was 31.3 µM (inactive) with SF-268; 5.53 µM (inactive) with SK-MEL-5; 3.42 µM (inactive) in the experiment with NCI-H522; 19.8 µM (inactive) with BT-549; 15.5 µM (inactive) with KM12; 21.8 µM (inactive) in the experiment with MDA-MB-231. Further, the GI50 in the experiment on OVCAR-3 is 22.9 µM (inactive); in the experiment with SW-620 it was 21.4 µM (inactive); in the experiment on UACC-62, 7.13 µM (inactive); with MDA-MB-435, 8.95 µM (inactive); in the experiment with EKVX, 13.5 µM (inactive); in the experiment on UO-31, 6.22 µM (inactive). Besides, the GI50 with Hs-578T was 23 µM (inactive); in the experiment with MDA-N it was 11.9 µM (inactive); in the experiment on A498, 23.3 µM (inactive); in the experiment on RPMI-8226 it was 5.07 µM (inactive); with CAKI-1, 39.7 µM (inactive); in the experiment on IGROV-1 it was 13.6 µM (inactive). For the same molecule, the GI50 in the experiment on K562 is 1.19 µM (inactive).
Consider `Cc1cn(CC2(CO)CCC2)c(=O)[nH]c1=O`, for which the GI50 in the experiment with SF-268 was > 10 µM (inactive); in the experiment with SK-MEL-5, > 100 µM (inactive); with NCI-H522 it was > 100 µM (inactive); with BT-549 it was > 100 µM (inactive); in the experiment with KM12 it was > 100 µM (inactive); with MDA-MB-231, > 100 µM (inactive). Moreover, the GI50 in the experiment with OVCAR-3, in the experiment on SW-620, with UACC-62, in the experiment on MDA-MB-435, in the experiment with EKVX and in the experiment with UO-31 was > 100 µM (inactive) each time. Further, the GI50 with Hs-578T, with MDA-N, with A498, in the experiment with RPMI-8226, in the experiment with CAKI-1 and in the experiment on IGROV-1 was > 100 µM (inactive) each time. Also, the GI50 in the experiment with K562 is > 100 µM (inactive).
On to `CCc1n[nH]c(=O)n1N1C(=O)C2CCCCC2C1=O` (stereo not given), for which the GI50 in the experiment on SF-268, with SK-MEL-5, in the experiment with NCI-H522, with BT-549, in the experiment with KM12 and in the experiment on MDA-MB-231 was > 100 µM (inactive) throughout. Moreover, the GI50 in the experiment on OVCAR-3, in the experiment on SW-620, in the experiment with UACC-62, in the experiment with MDA-MB-435, in the experiment on EKVX and in the experiment on UO-31 was > 100 µM (inactive) throughout. In addition, the GI50 in the experiment with Hs-578T, in the experiment with MDA-N, in the experiment with A498, in the experiment with RPMI-8226, in the experiment with CAKI-1 and in the experiment with IGROV-1 was > 100 µM (inactive) in each case. Further, the GI50 with K562 was > 100 µM (inactive).
In the case of `CC(C)CNP(=O)(NCC(C)C)Oc1ccc(CC(NC(=O)OCc2ccccc2)C(=O)OCc2ccccc2)cc1` (stereo not given), the GI50 is 17.6 µM (inactive) with SF-268; 20.2 µM (inactive) in the experiment with SK-MEL-5; 13.4 µM (inactive) with NCI-H522; 20.7 µM (inactive) with BT-549; 18.1 µM (inactive) with KM12; 17.7 µM (inactive) with MDA-MB-231. Further, the GI50 with OVCAR-3 was 3.68 µM (inactive); with SW-620, 20.4 µM (inactive); in the experiment on UACC-62, 18.5 µM (inactive); in the experiment with MDA-MB-435, 10 µM (inactive); in the experiment with EKVX it was 34.8 µM (inactive); with UO-31 it was 20.3 µM (inactive). The GI50 in the experiment on Hs-578T is 28.4 µM (inactive); in the experiment on MDA-N, 18.8 µM (inactive); in the experiment with A498 it was 22.5 µM (inactive); with RPMI-8226, 14.5 µM (inactive); in the experiment on CAKI-1, > 100 µM (inactive); in the experiment with IGROV-1 it was 35.4 µM (inactive). Also, in the experiment with K562, the GI50 was 20 µM (inactive).
With `CC(=O)OC1(C)CC(C)C(=O)C(C(O)CC2CC(=O)NC(=O)C2)C1` (stereo not given), the GI50 in the experiment with SF-268 was 0.0329 µM (active); in the experiment on SK-MEL-5 it was 0.00787 µM (active); in the experiment on NCI-H522, 0.00357 µM (active); in the experiment with BT-549 it was 0.0334 µM (active); with KM12 it was 0.00746 µM (active); in the experiment on MDA-MB-231 it was 0.0137 µM (active). Besides, the GI50 was 0.0236 µM (active) in the experiment on OVCAR-3; 0.015 µM (active) in the experiment with SW-620; 0.082 µM (active) in the experiment with UACC-62; 0.0148 µM (active) in the experiment with MDA-MB-435; 0.0253 µM (active) with EKVX; 0.0219 µM (active) with UO-31. For the same molecule, the GI50 in the experiment with Hs-578T was 0.0223 µM (active); with MDA-N, 0.0166 µM (active); in the experiment with A498, 0.0201 µM (active); in the experiment with RPMI-8226 it was 0.0118 µM (active); in the experiment on CAKI-1, 0.0875 µM (active); in the experiment with IGROV-1, 0.031 µM (active). For the same molecule, the GI50 in the experiment on K562 is 0.0178 µM (active).
On to `COC1C(OC(=O)/C=C/C=C/C=C/C=C/C(=O)O)CCC2(CO2)C1C1(C)OC1CC=C(C)C` (stereo not given), for which the GI50 with SF-268 is 34.5 µM (inactive); in the experiment with SK-MEL-5, 18.5 µM (inactive); with NCI-H522, 23.2 µM (inactive); in the experiment with BT-549, 21.6 µM (inactive); in the experiment with KM12 it was 12.4 µM (inactive); with MDA-MB-231, 21.3 µM (inactive). Also, the GI50 in the experiment with OVCAR-3 is 29.2 µM (inactive); in the experiment with SW-620, 21 µM (inactive); with UACC-62 it was 16.1 µM (inactive); with MDA-MB-435 it was 14.6 µM (inactive); with EKVX, 27.2 µM (inactive); with UO-31, 24.5 µM (inactive). The GI50 in the experiment on Hs-578T is 40.2 µM (inactive); in the experiment on MDA-N, 20.5 µM (inactive); with A498, > 100 µM (inactive); with RPMI-8226, 20.1 µM (inactive); with CAKI-1 it was 43.8 µM (inactive); with IGROV-1, 46.3 µM (inactive). Further, in the experiment on K562, the GI50 is 21.1 µM (inactive).
With `COc1ccc(C(=O)Nc2ccc3oc(-c4ccccc4)nc3c2)cc1`, the GI50 in the experiment with SF-268, in the experiment with SK-MEL-5, in the experiment on NCI-H522, in the experiment on BT-549, in the experiment on KM12 and in the experiment with MDA-MB-231 was > 100 µM (inactive) each time. The GI50 is > 100 µM (inactive) with OVCAR-3; > 100 µM (inactive) with SW-620; > 100 µM (inactive) in the experiment on UACC-62; > 100 µM (inactive) with MDA-MB-435; > 100 µM (inactive) in the experiment with EKVX; 0.227 µM (active) in the experiment with UO-31. The GI50 in the experiment with Hs-578T, with MDA-N, in the experiment on A498, with RPMI-8226, with CAKI-1 and in the experiment with IGROV-1 was > 100 µM (inactive) throughout. Also, the GI50 in the experiment with K562 was > 100 µM (inactive).
With `CCN1CN(c2ccccc2)C2(CCN(CC(CC3OCCO3)c3ccc(F)cc3)CC2)C1=O` (stereo not given), the GI50 with SF-268 is 5.19 µM (inactive); with SK-MEL-5, 4.07 µM (inactive); in the experiment with NCI-H522, 12.6 µM (inactive); in the experiment with BT-549, 21.6 µM (inactive); in the experiment with KM12, 10.7 µM (inactive); in the experiment with MDA-MB-231, 16.1 µM (inactive). Moreover, the GI50 was 18.8 µM (inactive) with OVCAR-3; 6.35 µM (inactive) with SW-620; 18.1 µM (inactive) in the experiment with UACC-62; 14.8 µM (inactive) with MDA-MB-435; 6.7 µM (inactive) in the experiment with EKVX; 26.2 µM (inactive) in the experiment on UO-31. Moreover, the GI50 in the experiment on Hs-578T was 29.9 µM (inactive); in the experiment with MDA-N it was 8.49 µM (inactive); in the experiment with A498, 3.63 µM (inactive); in the experiment on RPMI-8226, 10.4 µM (inactive); with CAKI-1, 3.18 µM (inactive); in the experiment with IGROV-1, 6.75 µM (inactive). Besides, the GI50 with K562 is 32 µM (inactive).

Source of the values: ChEMBL document CHEMBL1201862, “PubChem BioAssay data set” (2004).
